A short description of data set [1]: Cytotoxicity against dog MDCK cells assessed as cell viability at 30 uM incubated for 48 hrs by celltiter-glo assay. Format: toxicity, cell-based, Canis lupus familiaris. The following applies: read-out: Activity. Background: Cellular ATP, detected with luciferase, serves as a proxy for viable cell number.
Data set [2] is described as follows: Cytotoxicity against dog MDCK cells assessed as reduction in cell viability incubated for 48 hrs by celltiter-glo assay. Format: toxicity, cell-based, Canis lupus familiaris.
The nature of data set [3]: Selectivity index, ratio of CC50 for cytotoxicity against dog MDCK cells assessed as reduction in cell viability to IC50 for antiviral activity against influenza A virus A/WSN/33(H1N1) infected in MDCK cells assessed as inhibition of viral-induced cytopathic effect. Format: toxicity, cell-based. The conditions noted are these: read-out: Ratio CC50/IC50. On the technique in general: Damage to the host cells serves as the signal in cytopathic effect assays.

The test system of data set [4] is Influenza A virus. Put plainly: Antiviral activity against influenza A virus A/WSN/33(H1N1) infected in MDCK cells assessed as inhibition of viral growth at 30 uM incubated for 48 hrs by microscopic analysis. Details: scale not given: the % may be the effect or the level left. Format: functional.
Data set [5] relates to Influenza A virus. Put plainly: Antiviral activity against influenza A virus A/WSN/33(H1N1) infected in MDCK cells assessed as inhibition of viral-induced cytopathic effect incubated for 48 hrs by microscopic analysis. Format: functional, organism-based.

One may read the CC50 as the concentration that lowers cell viability or growth by half. Turning to `CC1(C)CC[C@]2(C(=O)O)CC[C@]3(C)C(=CC[C@@H]4[C@@]5(C)CC[C@H](O)C(C)(C)[C@@H]5CC[C@]43C)[C@@H]2C1` [OLEANOLIC_ACID], the viability at 48 h, 30 µM in data set [1] worked out at 99%. Further, in data set [2], the CC50 at 48 h was over 100 µM. Also, in data set [3], the selectivity ratio is over 1.38. For the same compound, the Activity in data set [4] came to 25.06%.
The IC50 is the concentration that gives 50% inhibition. Turning to `COC(=O)c1cc(OCc2cn(CCOCCOCCOCCNC(=O)c3cc(OCc4cn(CCOCCOCCOCCNC(=O)[C@]56CCC(C)(C)C[C@H]5C5=CC[C@@H]7[C@@]8(C)CC[C@H](O)C(C)(C)[C@@H]8CC[C@@]7(C)[C@]5(C)CC6)nn4)c(OCc4cn(CCOCCOCCOCCNC(=O)[C@]56CCC(C)(C)C[C@H]5C5=CC[C@@H]7[C@@]8(C)CC[C@H](O)C(C)(C)[C@@H]8CC[C@@]7(C)[C@]5(C)CC6)nn4)c(OCc4cn(CCOCCOCCOCCNC(=O)[C@]56CCC(C)(C)C[C@H]5C5=CC[C@@H]7[C@@]8(C)CC[C@H](O)C(C)(C)[C@@H]8CC[C@@]7(C)[C@]5(C)CC6)nn4)c3)nn2)c(OCc2cn(CCOCCOCCOCCNC(=O)c3cc(OCc4cn(CCOCCOCCOCCNC(=O)[C@]56CCC(C)(C)C[C@H]5C5=CC[C@@H]7[C@@]8(C)CC[C@H](O)C(C)(C)[C@@H]8CC[C@@]7(C)[C@]5(C)CC6)nn4)c(OCc4cn(CCOCCOCCOCCNC(=O)[C@]56CCC(C)(C)C[C@H]5C5=CC[C@@H]7[C@@]8(C)CC[C@H](O)C(C)(C)[C@@H]8CC[C@@]7(C)[C@]5(C)CC6)nn4)c(OCc4cn(CCOCCOCCOCCNC(=O)[C@]56CCC(C)(C)C[C@H]5C5=CC[C@@H]7[C@@]8(C)CC[C@H](O)C(C)(C)[C@@H]8CC[C@@]7(C)[C@]5(C)CC6)nn4)c3)nn2)c(OCc2cn(CCOCCOCCOCCNC(=O)c3cc(OCc4cn(CCOCCOCCOCCNC(=O)[C@]56CCC(C)(C)C[C@H]5C5=CC[C@@H]7[C@@]8(C)CC[C@H](O)C(C)(C)[C@@H]8CC[C@@]7(C)[C@]5(C)CC6)nn4)c(OCc4cn(CCOCCOCCOCCNC(=O)[C@]56CCC(C)(C)C[C@H]5C5=CC[C@@H]7[C@@]8(C)CC[C@H](O)C(C)(C)[C@@H]8CC[C@@]7(C)[C@]5(C)CC6)nn4)c(OCc4cn(CCOCCOCCOCCNC(=O)[C@]56CCC(C)(C)C[C@H]5C5=CC[C@@H]7[C@@]8(C)CC[C@H](O)C(C)(C)[C@@H]8CC[C@@]7(C)[C@]5(C)CC6)nn4)c3)nn2)c1`, in data set [1], the viability at 48 h, 30 µM is 100%. Moreover, the IC50 in data set [5] was found to be 47.1 µM. The CC50 at 48 h in data set [2] was over 30 µM. The selectivity ratio in data set [3] was over 0.64. Further, the Activity in data set [4] is reported as 65.08%.

These data come from ChEMBL document CHEMBL5625165, “Nine-valent oleanolic acid conjugates as potent inhibitors blocking the entry of influenza A virus” (Eur J Med Chem, 2023).
